Patent US7022689B2, “5-amidino-n-(2-aminophenethyl)-n-hydroxy-benzenesulffonamide derivative, medical composition containing the same, pharmaceutical use thereof and intermediate therefor” (Kissei Pharmaceutical Co., Ltd., priority 2001, dated 2006)
Where a name gives a salt, the structure may show the parent alone.

Assays:
[1] = biological target: T1, human activated blood coagulation factor X (Homo sapiens, UniProt P00742); assay: Measurement of inhibitory activity for activated blood coagulation factor X (S-2222 chromogenic substrate); format: biochemical; conditions: substrate S-2222, tris-NaCl buffer pH 8.4, 10 minutes at 37° C., absorbance 405 nm
T1 construct: purchased Calbiochem
T1 sequence (P00742 235-488 limits assumed): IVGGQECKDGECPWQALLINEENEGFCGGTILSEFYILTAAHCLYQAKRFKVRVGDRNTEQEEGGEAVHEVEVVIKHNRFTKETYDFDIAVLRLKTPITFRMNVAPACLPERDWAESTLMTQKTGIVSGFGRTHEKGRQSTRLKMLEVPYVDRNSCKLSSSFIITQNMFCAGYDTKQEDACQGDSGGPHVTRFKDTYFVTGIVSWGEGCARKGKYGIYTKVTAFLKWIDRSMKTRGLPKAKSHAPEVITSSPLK
T1 sequence (P00742 41-179 partner limits assumed): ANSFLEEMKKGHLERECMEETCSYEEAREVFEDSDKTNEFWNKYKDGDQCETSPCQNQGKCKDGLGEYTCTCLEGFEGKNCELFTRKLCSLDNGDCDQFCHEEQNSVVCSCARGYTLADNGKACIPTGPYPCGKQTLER
Protocol: Measurement of Inhibitory Activity for Activated Blood Coagulation Factor X 2.5 μL of a dimethylsulfoxide solution of a test compound, 187.5 μL of 100 mM tris-200 mM NaCl buffer (pH 8.4) and 50 μL of 1 mM S-2222 (Daiichi Pure Chemicals) aqueous solution were poured into 96 well microplate. Then 10 μL of 0.6 U/mL human activated blood coagulation factor X (Calbiochem) in gelatin-glycine buffer was added and the mixture was incubated for 10 minutes at 37° C. The reaction was terminated with the addition of 50 μL of 60% acetic acid and absorbance (405 nm) was measured by a microplate reader (SPECTRAmax250, Molecular Devices). The group with 2.5 μL of the dimethylsulfoxide solution instead of the test compound solution was defined as the control, and the group with 10 μL of the gelatin-glycine buffer solution instead of human activated blood coagulation factor X was defined as the blank.

[2] = biological target: T2, human thrombin (Homo sapiens, UniProt P00734); assay: Measurement of inhibitory activity for thrombin (S-2238 chromogenic substrate); format: biochemical; conditions: substrate S-2238, tris-NaCl buffer pH 8.4, 10 minutes at 37° C., absorbance 405 nm
T2 construct: human thrombin (Sigma Chemical Company); purchased Sigma Chemical Company
Protocol: Measurement of Inhibitory Activity for Thrombin
2.5 μL of a dimethylsulfoxide solution of a test compound, 187.5 μL of 100 mM tris-200 mM NaCl buffer (pH 8.4) and 50 μL of 1 mM S-2238 (Daiichi Pure Chemicals) aqueous solution were poured into 96 well microplate. Then 10 μL of 2.0 U/mL human thrombin (Sigma Chemical Company) in gelatin-glycine buffer was added and the mixture was incubated for 10 minutes at 37° C. The reaction was terminated with the addition of 50 μL of 60% acetic acid and absorbance (405 nm) was measured by a microplate reader (SPECTRAmax250, Molecular Devices).
The group with 2.5 μL of the dimethylsulfoxide solution instead of the test compound solution was defined as the control, and the group with 10 μL of the gelatin-glycine buffer solution instead of human thrombin was defined as the blank. The concentration of a test compound that inhibited the absorbance of control by 50% (IC50) was obtained, and this value was used as the index of inhibitory activity for thrombin.

`CS(=O)(=O)c1ccccc1-c1ccc(CCNS(=O)(=O)c2cc(C(=N)N)ccc2O)c(NCC(=O)O)c1` [Compound 17, [[4-[2-(5-Carbamimidoyl-2-hydroxybenzenesulfonylamino)ethyl]-2′-methanesulfonylbiphenyl-3-yl]amino]acetic aid hydrochloride] showed an IC50 [1] of 7.1 nM and an IC50 [2] of 37000 nM.
`CC(C)c1ccc(CCNS(=O)(=O)c2cc(C(=N)N)ccc2O)c(NCC(=O)O)c1` [Compound 18, [[2-[2-(5-Carbamimidoyl-2-hydroxybenzenesulfonylamino)ethyl]-5-isopropylphenyl]amino]acetic acid] was tested, and the IC50 [1] was 77 nM and the IC50 [2] was over 100000 nM.
